Assay results taken from patent US20100120778A1, “QUINOXALINE-BASED LXR MODULATORS” (Wyeth, priority 2008, published 2010).

Assays:
human LXRβ = biological target: T1, human LXRβ (Homo sapiens, UniProt P55055); assay: Ligand-binding test procedure for human LXRβ (3H T0901317 tracer, flash plates); settings: biotinylated hLXRβ, tracer 3H T0901317, +4° C. over night
T1 construct: biotin (biotinylated); made in house; host or cells: E. coli
T1 sequence (P55055 1-460): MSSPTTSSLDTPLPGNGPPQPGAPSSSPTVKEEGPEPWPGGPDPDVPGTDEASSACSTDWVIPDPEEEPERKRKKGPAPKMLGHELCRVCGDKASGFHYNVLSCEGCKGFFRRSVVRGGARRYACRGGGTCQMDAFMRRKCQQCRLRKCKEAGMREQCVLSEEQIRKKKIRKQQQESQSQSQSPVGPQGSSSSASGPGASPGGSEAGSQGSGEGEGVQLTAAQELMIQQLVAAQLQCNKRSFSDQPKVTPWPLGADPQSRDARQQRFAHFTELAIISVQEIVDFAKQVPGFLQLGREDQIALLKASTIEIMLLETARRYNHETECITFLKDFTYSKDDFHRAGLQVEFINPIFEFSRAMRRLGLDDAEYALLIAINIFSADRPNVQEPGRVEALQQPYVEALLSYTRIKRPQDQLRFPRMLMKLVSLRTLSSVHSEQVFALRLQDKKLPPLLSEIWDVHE
Method: I. Ligand-Binding Test Procedure for Human LXRβ.
Receptor source: E. coli extracted from cells expressing biotinylated hLXRβ. Extract was made in a similar buffer as above, but with 50 mM TRIS.
Washed streptavidin and coated flash plates with wash buffer. Diluted receptor extract to give Bmax˜4000 cpm and add to the wells. Wrapped the plates in aluminum foil and stored them at +4° C. overnight.
(§1) Made a dilution series in DMSO of the test ligands. Made a 5 nM solution of the radioactive tracer in buffer. Mixed 250 μl diluted tracer with 5 μl of the test ligand from each concentration of the dilution series. Washed the receptor-coated flash plates. Added 200 μl per well of the ligand/radiolabel mixture to the receptor-coated flash plates. Wrapped the plates in aluminum foil and incubate at +4° C. over night.
Aspirated wells, and washed the flashed plates. Sealed the plate.
Measured the remaining radioactivity in the plate.

human LXRα = biological target: T2, human LXRα (Homo sapiens, UniProt Q13133); assay: Ligand-binding test procedure for human LXRα (3H T0901317 tracer, flash plates); settings: biotinylated hLXRα, tracer 3H T0901317, +4° C. over night
T2 construct: biotin (biotinylated); made in house; host or cells: E. coli
T2 sequence (Q13133 1-447): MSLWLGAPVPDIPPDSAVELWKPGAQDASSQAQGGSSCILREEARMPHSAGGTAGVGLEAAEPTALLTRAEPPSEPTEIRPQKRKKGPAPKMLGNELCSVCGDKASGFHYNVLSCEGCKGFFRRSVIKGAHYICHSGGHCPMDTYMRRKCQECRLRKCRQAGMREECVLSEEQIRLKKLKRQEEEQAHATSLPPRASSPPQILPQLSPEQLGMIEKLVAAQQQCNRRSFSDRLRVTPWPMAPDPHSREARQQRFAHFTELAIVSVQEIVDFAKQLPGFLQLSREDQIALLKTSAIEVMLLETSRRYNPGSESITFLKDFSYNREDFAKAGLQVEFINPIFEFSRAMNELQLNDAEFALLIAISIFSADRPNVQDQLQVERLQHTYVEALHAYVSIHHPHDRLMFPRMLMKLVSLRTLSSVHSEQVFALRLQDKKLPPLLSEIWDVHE
Method: II. Ligand-Binding Test Procedure for Human LXRα.
Receptor source: E. coli extract from cells expressing biotinylated hLXRα. Extract was made in a similar buffer as above, but with 50 mM TRIS.
Washed streptavidin and coated flash plates with wash buffer. Diluted receptor extract to give Bmax˜4000 cpm and add to the wells. Wrapped the plates in aluminum foil and stored them at +4° C. over night.
as §1
Aspirated wells, and wash the flashed plates. Sealed the plate. Measured the remaining radioactivity in the plate.

SMILES	IC50 (human LXRβ)	IC50 (human LXRα)
Cc1nc2cccc(Cl)c2nc1-c1ccc(-c2cccc(S(C)(=O)=O)c2)cc1 [Example 68, 5-chloro-2-methyl-3-[3′-(methylsulfonyl)biphenyl-4-yl]quinoxaline]	235 nM	> 1000 nM
Cc1nc2c(C(F)(F)F)cccc2nc1-c1ccc(Oc2cccc(S(C)(=O)=O)c2)cc1 [Example 12, 3-methyl-2-{4-[3-(methylsulfonyl)phenoxy]phenyl}-5-(trifluoromethyl)quinoxaline]	6400 nM	> 1000 nM
Cc1nc2c(Cl)cccc2nc1-c1cccc(Oc2cccc(S(C)(=O)=O)c2)c1 [Example 5, 5-chloro-3-methyl-2-{3-[3-(methylsulfonyl)phenoxy]phenyl}quinoxaline]	390 nM	> 1000 nM
CCS(=O)(=O)c1cccc(-c2ccc(Oc3nc4cccc(Cl)c4nc3C)cc2)c1 [Example 83, 5-chloro-2-{[3′-(ethylsulfonyl)biphenyl-4-yl]oxy}-3-methylquinoxaline]	> 1000 nM	> 1000 nM
Cc1nc2c(C(F)(F)F)cccc2nc1-c1cc(Oc2cccc(S(=O)(=O)CCCF)c2)ccc1Cl [Example 75, 2-(2-chloro-5-{3-[(3-fluoropropyl)sulfonyl]phenoxy}phenyl)-3-methyl-5-(trifluoromethyl)-quinoxaline]	287 nM	2190 nM
CCS(=O)(=O)c1cccc(Oc2ccc(Cl)c(-c3nc4cccc(C(F)(F)F)c4nc3C)c2)c1 [Example 56, 2-{2-chloro-5-[3-(ethylsulfonyl)phenoxy]phenyl}-3-methyl-5-(trifluoromethyl)quinoxaline]	12 nM	435 nM
Cc1nc2cccc(C(F)(F)F)c2nc1-c1ccc(-c2cncc(S(C)(=O)=O)c2)cc1 [Example 73, 2-methyl-3-{4-[5-(methylsulfonyl)pyridin-3-yl]phenyl}-5-(trifluoromethyl)quinoxaline]	123 nM	> 1000 nM
Cc1nc2ccccc2nc1-c1cc(Oc2cccc(S(C)(=O)=O)c2)ccc1Cl [Example 66, 2-{2-chloro-5-[3-(methylsulfonyl)phenoxy]phenyl}-3-methylquinoxaline]	361 nM	> 1000 nM
Cc1nc2c(C(F)(F)F)cccc2nc1-c1cccc(Oc2cccc(S(C)(=O)=O)c2)c1 [Example 2, 3-methyl-2-{3-[3-(methylsulfonyl)phenoxy]phenyl}-5-(trifluoromethyl)quinoxaline]	127 nM	1020 nM
Cc1nc2cccc(C(F)(F)F)c2nc1-c1cc(Oc2cccc(S(=O)(=O)CCCO)c2)ccc1Cl [Example 63, 3-[(3-{4-chloro-3-[3-methyl-8-(trifluoromethyl)quinoxalin-2-yl]phenoxy}phenyl)sulfonyl]-propan-1-ol]	48 nM	979 nM
Cc1nc2c(C(F)(F)F)cccc2nc1-c1cc(Oc2ccccc2S(C)(=O)=O)ccc1Cl [Example 46, 2-{2-chloro-5-[2-(methylsulfonyl)phenoxy]phenyl}-3-methyl-5-(trifluoromethyl)quinoxaline]	1460 nM	1620 nM
O=S(=O)(CCCO)c1cccc(Oc2cccc(-c3cnc4cccc(C(F)(F)F)c4n3)c2)c1 [Example 11, 3-[(3-{3-[8-(trifluoromethyl)quinoxalin-2-yl]phenoxy}phenyl)sulfonyl]propan-1-ol]	2480 nM	> 1000 nM
Cc1nc2c(C(F)(F)F)cccc2nc1-c1cc(Oc2ccc(S(C)(=O)=O)cc2)ccc1Cl [Example 42, 2-{2-chloro-5-[4-(methylsulfonyl)phenoxy]phenyl}-3-methyl-5-(trifluoromethyl)quinoxaline]	745 nM	1890 nM
Cc1nc2c(C(F)(F)F)cccc2nc1-c1ccc(-c2cncc(S(C)(=O)=O)c2)cc1 [Example 74, 3-methyl-2-{4-[5-(methylsulfonyl)pyridin-3-yl]phenyl}-5-(trifluoromethyl)quinoxaline]	> 1000 nM	> 1000 nM
Cc1nc2cccc(C(F)(F)F)c2nc1-c1cc(Oc2cc(F)cc(S(C)(=O)=O)c2)ccc1Cl [Example 64, 3-{2-chloro-5-[3-fluoro-5-(methylsulfonyl)phenoxy]phenyl}-2-methyl-5-(trifluoromethyl)-quinoxaline]	89 nM	638 nM
Cc1nc2cccc(C(F)(F)F)c2nc1-c1ccc(Oc2cccc(S(C)(=O)=O)c2)cc1 [Example 7, 2-methyl-3-{4-[3-(methylsulfonyl)phenoxy]phenyl}-5-(trifluoromethyl)quinoxaline]	1550 nM	> 1000 nM
Cc1nc2cccc(C(F)(F)F)c2nc1-c1cc(Oc2cccc(S(=O)(=O)C(C)C)c2)ccc1Cl [Example 62, 3-(2-chloro-5-{3-[(1-methylethyl)sulfonyl]phenoxy}phenyl)-2-methyl-5-(trifluoromethyl)quinoxaline]	38 nM	876 nM
Cc1nc2c(Cl)cccc2nc1Oc1ccc(-c2cccc(NS(C)(=O)=O)c2)cc1 [Example 93, N-{4′-[(5-chloro-3-methylquinoxalin-2-yl)oxy]biphenyl-3-yl}methanesulfonamide]	869 nM	3530 nM
Cc1nc2cccc(Cl)c2nc1-c1cccc(Oc2cccc(S(C)(=O)=O)c2)c1 [Example 10, 5-chloro-2-methyl-3-{3-[3-(methylsulfonyl)phenoxy]phenyl}quinoxaline]	2210 nM	> 1000 nM
CCS(=O)(=O)c1cccc(Oc2ccc(Cl)c(-c3nc4c(C(F)(F)F)cccc4nc3C)c2)c1 [Example 61, 3-{2-chloro-5-[3-(ethylsulfonyl)phenoxy]phenyl}-2-methyl-5-(trifluoromethyl)quinoxaline]	29 nM	366 nM
Cc1nc2c(C(F)(F)F)cccc2nc1-c1cc(Oc2cccc(S(=O)(=O)CCCCl)c2)ccc1Cl [Example 76, 2-(2-chloro-5-{3-[(3-chloropropyl)sulfonyl]phenoxy}phenyl)-3-methyl-5-(trifluoromethyl)-quinoxaline]	204 nM	401 nM
CS(=O)(=O)c1cccc(Oc2cccc(-c3cnc4cccc(C(F)(F)F)c4n3)c2)c1 [Example 9, 2-{3-[3-(methylsulfonyl)phenoxy]phenyl}-8-(trifluoromethyl)quinoxaline]	1960 nM	> 1000 nM
